Assay results as given in ChEMBL document CHEMBL5512640, “Discovery of novel itaconimide-based derivatives as potent HDAC inhibitors for the efficient treatment of prostate cancer” (Eur J Med Chem, 2024).

Assays:
[1] = biological target: Histone deacetylase 1 (Homo sapiens, UniProt Q13547); assay: Inhibition of human HDAC1 incubated for 10 mins followed by fluorogenic substrate addition by fluorescence based analysis
[2] = system: DU-145; assay: Antiproliferative activity against human DU-145 cells incubated for 96 hrs by MTT assay; type: functional, cell-based; details: DU-145, 96 h
[3] = system: A549; assay: Antiproliferative activity against human A549 cells incubated for 96 hrs by MTT assay; type: functional, cell-based; details: A549, 96 h
[4] = system: MDA-MB-231; assay: Antiproliferative activity against human MDA-MB-231 cells incubated for 96 hrs by MTT assay; type: functional, cell-based; details: MDA-MB-231, 96 h
[5] = system: LNCaP; assay: Antiproliferative activity against human LNCaP cells incubated for 96 hrs by MTT assay; type: functional, cell-based
[6] = biological target: Histone deacetylase 4 (Homo sapiens, UniProt P56524); assay: Inhibition of human HDAC4 incubated for 10 mins followed by fluorogenic substrate addition by fluorescence based analysis
Histone deacetylase 4, sequence (P56524 whole entry): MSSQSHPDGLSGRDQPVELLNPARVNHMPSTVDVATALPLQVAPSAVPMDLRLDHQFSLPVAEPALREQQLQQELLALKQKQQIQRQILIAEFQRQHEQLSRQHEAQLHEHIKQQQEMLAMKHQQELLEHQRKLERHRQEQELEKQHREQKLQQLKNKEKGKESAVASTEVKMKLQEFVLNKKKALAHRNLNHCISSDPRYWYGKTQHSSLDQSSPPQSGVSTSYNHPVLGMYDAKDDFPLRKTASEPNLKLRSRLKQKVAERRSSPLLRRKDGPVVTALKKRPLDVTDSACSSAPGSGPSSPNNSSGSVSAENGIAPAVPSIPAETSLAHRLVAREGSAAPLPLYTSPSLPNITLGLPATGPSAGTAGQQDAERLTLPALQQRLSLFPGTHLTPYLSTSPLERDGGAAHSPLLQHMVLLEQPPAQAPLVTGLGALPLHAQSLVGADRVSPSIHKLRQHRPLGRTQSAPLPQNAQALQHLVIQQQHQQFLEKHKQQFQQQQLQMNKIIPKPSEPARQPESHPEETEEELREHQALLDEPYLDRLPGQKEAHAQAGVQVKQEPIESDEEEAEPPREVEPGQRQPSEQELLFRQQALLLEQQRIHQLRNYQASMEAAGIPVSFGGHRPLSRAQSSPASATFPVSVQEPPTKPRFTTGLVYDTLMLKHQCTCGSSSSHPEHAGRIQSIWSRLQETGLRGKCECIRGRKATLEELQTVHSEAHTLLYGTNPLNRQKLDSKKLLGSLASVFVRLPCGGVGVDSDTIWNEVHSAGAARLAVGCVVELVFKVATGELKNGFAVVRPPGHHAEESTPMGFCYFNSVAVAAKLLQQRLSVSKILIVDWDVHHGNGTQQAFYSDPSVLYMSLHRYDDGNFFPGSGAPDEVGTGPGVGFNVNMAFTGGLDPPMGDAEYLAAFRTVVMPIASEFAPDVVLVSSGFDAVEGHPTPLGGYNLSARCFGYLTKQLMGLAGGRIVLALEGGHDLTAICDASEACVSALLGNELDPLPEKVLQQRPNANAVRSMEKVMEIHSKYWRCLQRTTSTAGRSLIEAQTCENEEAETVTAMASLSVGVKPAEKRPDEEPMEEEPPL

[7] = system: DU-145; assay: Inhibition of colony formation in human DU-145 cells assessed as suppression of colony formation measured after 2 weeks by crystal violet staining based analysis; type: functional, cell-based; details: dose 0.4-3.2 µM
[8] = system: DU-145; assay: Upregulation of Ac-H3 level in human DU-145 cells incubated for 24 hrs by Western blot analysis; type: functional, cell-based; details: dose 0.8-3.2 µM
[9] = Volume of distribution in Sprague-Dawley rat at 2 mg/kg, iv measured upto 24 hrs by LC-MS/MS analysis; type: ADME, organism-based; details: in vivo
[10] = Oral bioavailability in Sprague-Dawley rat at 10 mg/kg measured upto 24 hrs by LC-MS/MS analysis; type: ADME, organism-based; details: in vivo
[11] = Acute toxicity in male Sprague-Dawley rat assessed as effect on body weight at 500 to 4500 mg/kg, po measured every 3 days for 15 days; type: organism-based; details: in vivo, 360 h, dose 500-4500 mg/kg, time 15 day
[12] = Acute toxicity in Sprague-Dawley rat assessed as effect on spleen at 500 to 4500 mg/kg, po measured after 15 days; type: organism-based; details: in vivo, 360 h, dose 500-4500 mg/kg, time 15 day
[13] = system: DU-145; assay: animal or person; type: functional, Homo sapiens; details: Mus musculus, DU-145, 960 h, route po, time 40 day, read-out: TGI
Description: Antitumor activity against human DU-145 cells xenografted in Balb/c nude mouse model assessed as tumor growth inhibition at 100 mg/kg, po administered once daily for 40 days relative to control

[14] = system: DU-145; assay: Antitumor activity against human DU-145 cells xenografted in Balb/c nude mouse model assessed as tumor growth inhibition at high dose administered as po once daily for 40 days relative to control; type: functional; details: time 40 day

Histone deacetylase 1, sequence (Q13547 whole entry): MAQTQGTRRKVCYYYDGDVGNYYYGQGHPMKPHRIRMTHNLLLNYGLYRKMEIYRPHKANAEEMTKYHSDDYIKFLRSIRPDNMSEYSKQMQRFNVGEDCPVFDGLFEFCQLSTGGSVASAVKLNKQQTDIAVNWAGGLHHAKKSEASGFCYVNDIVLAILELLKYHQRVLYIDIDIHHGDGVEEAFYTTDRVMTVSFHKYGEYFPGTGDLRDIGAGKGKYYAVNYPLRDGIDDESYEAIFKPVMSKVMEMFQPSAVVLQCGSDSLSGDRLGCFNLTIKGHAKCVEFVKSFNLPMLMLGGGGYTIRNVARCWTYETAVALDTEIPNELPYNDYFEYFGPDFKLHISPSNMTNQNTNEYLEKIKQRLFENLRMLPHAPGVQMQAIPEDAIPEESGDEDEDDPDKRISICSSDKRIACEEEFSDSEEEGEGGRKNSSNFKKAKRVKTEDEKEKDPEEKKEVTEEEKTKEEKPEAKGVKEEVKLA

`COc1ccccc1/C=C1\CC(=O)N(CCCCCCC(=O)NO)C1=O` showed an IC50 [1] of 0.0126 µM, an IC50 [2] of 0.16 µM and an IC50 [3] of 1.39 µM. It also gave an IC50 [4] of 0.31 µM, an IC50 [5] of 0.63 µM and an IC50 [6] greater than 5 µM. The inhibition [7] was “Dose-Dependent Effect”, the Activity [8] was “Dose-Dependent Effect” and the Vd [9] was 4.63 L/kg. For the same compound, the bioavailability [10] was 46.5%, the Activity [11] was “Non-Toxic” and the Activity [12] was “Non-Toxic”. It also gave an inhibition in vivo at 100 mg/kg [13] of 50.9% and a TGI [14] of 68%.
